Laboratory results taken from patent US20230414626A1, “INDUCTION OF FERROPTOSIS FOR CANCER THERAPY” (Memorial Sloan Kettering Cancer Center, priority 2020, published 2023).

What was measured:
BT474 cells = test: Cell death quantification (Sytox Green), RSL3-induced ferroptosis; format: cell-based, human; details: fatty acid 0.5 mM, RSL3 0.5 μM, CCI-779 0.5 μM
Procedure: (§1) FIG. 1 A-D. Oncogenic activation of the PI3K-AKT-mTOR signaling pathway confers resistance to ferroptosis. (A) Genetic background of the analyzed cancer cell lines and their sensitivity to RSL3. (B) Cells were seeded in 96-well plate, 2×10^4 cells per well and incubated overnight. Cell death was induced by 24-h treatment of RSL3 with indicated concentrations. Cell death were measured by Sytox Green staining, as detailed in Methods. (C) Indicated protein components in the PI3K-AKT pathway were detected by western blot in indicated cell types. (D) Cells were treated with or without PI3K inhibitor GDC-0941 (2 μM), AKT inhibitor MK-2206 (2 μM), RSL3 (1 μM), or ferroptosis inhibitor Ferrostatin-1 (Fer-1, 1 μM) as indicated for 12 h (BT474) or 24 h (MDA-MB-453). Cell death was measured. Indicators for P values (same in all other figures): ****, P≤0.0001; *** P≤0.001; **, P≤0.01; *, P≤0.05; ns, P>0.05
(§2) FIG. 2 A-E. mTORC1, instead of mTORC2, suppresses ferroptosis. (A) MDA-MB-453 and BT474 were treated with CCI-779 (0.5 μM), RSL3 (1 μM for MDA-MB-453 cells and 0.5 μM for BT474 cells), and Fer-1 (1 μM) as indicated. (B) Cells were seeded in 6-well plate, 4×10^5 cells per well and incubated overnight. MDA-MB-453 and BT474 cells were treated as indicated. CCI-779, 0.5 μM; RSL3, 1 μM for MDA-MB-453 cells and 0.5 μM for BT474 cells; Fer-1, 1 μM. Cells were stained with 5 μM C1I-BODIPY followed by flow cytometry after 8 h-treatment. (C) 3D spheroids were treated as indicated. CCI-779, 0.5 μM; RSL3, 0.5 μM; Fer-1, 1 μM. Top panel, dead cells were stained by SYTOX Green (scale bar, 100 μm). Bottom panel, cell viability was assayed by measuring cellular ATP levels. (D) Cells expressing shRNAs targeting RPTOR or RICTOR were treated as indicated. CCI-779, 0.5 μM; RSL3, 0.5 μM; Fer-1, 1 μM. (E) Lipid peroxidation of samples as in panel D were measured.
(§3) FIG. 5 A-H. SREBP1 protects cells from ferroptosis through SCD1 activity. (A) The expression of SREBP1, and its targets SCD1, FASN, and ACACA, in control and SREBF1-sgRNA cells were detected by western blot. (B) The mRNA level of SREPF1 and its targets gene SCD were measured by RT-PCR. (C) Cells were pretreated with or without 5 μM CAY10566 overnight, and then subjected to the indicated treatments. RSL3, 0.5 μM for BT474 cells and 1 μM for MDA-MB-453 cells; CAY10566, 5 μM; Fer-1, 1 μM. (D) Cells expressing control or SCD-sgRNA were treated as indicated. RSL3, 1 μM for MDA-MB-453 cells and 0.5 μM for BT474 cells; Fer-1, 1 μM. (E) 3D spheroids derived from BT474 cells harboring control or SCD-sgRNA were treated as indicated. RSL3, 0.5 μM; CCI-779, 0.5 μM; Fer-1, 1 μM. Left, cell death staining (scale bar, 100 m). Right, cell viability. (F) SCD1 was overexpressed in BT474 cells and determined by western blot. Cells were treated as indicated. RSL3, 0.5 μM; CCI-779, 0.5 μM. (G) 3D spheroids derived from BT474 cells with control or SCD1 overexpression were treated as indicated. RSL3, 0.5 μM; CCI-779, 0.5 μM; Fer-1, 1 μM. Left, cell death staining (scale bar, 100 m). Right, cell viability. (H) Cells were treated as indicated. RSL3, 0.5 μM for BT474 and 1 μM for MDA-MB-453; CCI-779, 0.5 μM; Oleic acid (OA), 0.5 mM; stearic acid (SA), 0.5 mM.
(§4) FIG. 7 A-J. PI3K-AKT-mTOR signaling regulates ferroptosis sensitivity. (A) Cells were treated as indicated. GDC-0941, 2 μM; MK-2206, 2 μM; RSL3, 1 μM; Fer-1, 1 μM. Lipid peroxidation was measured. (B) Cells were treated with indicated conditions. Torin, 1 μM; RSL3, 1 μM for MDA-MB-453 cells and 0.5 μM for BT474 cells; Fer-1, 1 μM. Cell death was measured. (C) Cells were treated with indicated conditions. RSL3, 10 μM for MCF cells and PC-3 cells, 5 μM for T47D cells, 1 μM for HepG2 cells; Torin, 1 μM; CCI-779, 0.5 μM. (D) Cells were treated as indicated. CCI-779, 0.5 μM; Torin, 1 μM; Fer-1, 1 μM. Cell death was staining by propidium iodide (PI) (red) or Sytox Green (green) (scale bar, 100 μm). (E-F) 3D spheroids for MDA-MB-453 cells and MCF7 cells were treated as indicated. […]

MDA-MB-453 cells = test: as above; format: cell-based, human; details: fatty acid 0.5 mM, RSL3 1 μM, CCI-779 0.5 μM
Procedure: as §1, §2, §3, §4

[1] = tested on: panel of human cancer cell lines with defined genetic mutations; test: Sensitivity of cancer cell line panel to RSL3 (cell death, Sytox Green); format: cell-based; details: cancer cells carrying PIK3CA activating mutation or PTEN deletion; 24-h treatment
Procedure: FIG. 1 A-D. Oncogenic activation of the PI3K-AKT-mTOR signaling pathway confers resistance to ferroptosis. (A) Genetic background of the analyzed cancer cell lines and their sensitivity to RSL3. (B) Cells were seeded in 96-well plate, 2×10^4 cells per well and incubated overnight. Cell death was induced by 24-h treatment of RSL3 with indicated concentrations. Cell death were measured by Sytox Green staining, as detailed in Methods. (C) Indicated protein components in the PI3K-AKT pathway were detected by western blot in indicated cell types. […] Cell death was measured. […]
To investigate the functional interplay between ferroptosis and signaling pathways frequently mutated in cancer, we analyzed a panel of human cancer cell lines with defined genetic mutations. […]
Cells were seeded in plates at appropriate cell density and incubated overnight at 37° C. containing 5% C02, and then subjected to treatments as described in individual experiments. […] Culture plates were read by Cytation 5 at indicated time points. Percentage of cell death was calculated as Sytox Green-positive cell number over total cell number. For 3D spheroids, cell viability was determined a commercially available cell viability assay (Promega, Madison, WI, USA) following the manufacturer's instructions. […]

HT1080 cells = test: Cell death quantification, PI3K-AKT-mTOR wild-type cells; format: cell-based, human; details: HT1080, wild-type PI3K-AKT-mTOR pathway; RSL3 0.1 μM; Torin 1 μM; CCI-779 0.5 μM
Procedure: (§5) FIG. 7 A-J. PI3K-AKT-mTOR signaling regulates ferroptosis sensitivity. (A) Cells were treated as indicated. GDC-0941, 2 μM; MK-2206, 2 μM; RSL3, 1 μM; Fer-1, 1 μM. Lipid peroxidation was measured. (B) Cells were treated with indicated conditions. Torin, 1 μM; RSL3, 1 μM for MDA-MB-453 cells and 0.5 μM for BT474 cells; Fer-1, 1 μM. Cell death was measured. (C) Cells were treated with indicated conditions. RSL3, 10 μM for MCF cells and PC-3 cells, 5 μM for T47D cells, 1 μM for HepG2 cells; Torin, 1 μM; CCI-779, 0.5 μM. (D) Cells were treated as indicated. CCI-779, 0.5 μM; Torin, 1 μM; Fer-1, 1 μM. Cell death was staining by propidium iodide (PI) (red) or Sytox Green (green) (scale bar, 100 μm). […] Cell death was measured. […]
(§6) Cells were seeded in plates at appropriate cell density and incubated overnight at 37° C. containing 5% C02, and then subjected to treatments as described in individual experiments. […] Culture plates were read by Cytation 5 at indicated time points. Percentage of cell death was calculated as Sytox Green-positive cell number over total cell number. For 3D spheroids, cell viability was determined a commercially available cell viability assay (Promega, Madison, WI, USA) following the manufacturer's instructions. Viability was calculated by normalizing ATP levels of samples to that of negative controls (spheroids in normal full media without treatment).

MDA-MB-231 cells = test: as above; format: cell-based, human; details: MDA-MB-231, wild-type PI3K-AKT-mTOR pathway; RSL3 0.25 μM; Torin 1 μM; CCI-779 0.5 μM
Procedure: as §5, §6

mTORC1 activity = test: Western blot of S6K phosphorylation (pT389 S6K); format: cell-based, human; details: RSL3 0.25 μM
Procedure: FIG. 7 A-J. PI3K-AKT-mTOR signaling regulates ferroptosis sensitivity. (A) Cells were treated as indicated. GDC-0941, 2 μM; MK-2206, 2 μM; RSL3, 1 μM; Fer-1, 1 μM. Lipid peroxidation was measured. (B) Cells were treated with indicated conditions. Torin, 1 μM; RSL3, 1 μM for MDA-MB-453 cells and 0.5 μM for BT474 cells; Fer-1, 1 μM. Cell death was measured. (C) Cells were treated with indicated conditions. RSL3, 10 μM for MCF cells and PC-3 cells, 5 μM for T47D cells, 1 μM for HepG2 cells; Torin, 1 μM; CCI-779, 0.5 μM. (D) Cells were treated as indicated. CCI-779, 0.5 μM; Torin, 1 μM; Fer-1, 1 μM. Cell death was staining by propidium iodide (PI) (red) or Sytox Green (green) (scale bar, 100 μm). (E-F) 3D spheroids for MDA-MB-453 cells and MCF7 cells were treated as indicated. CCI-779, 0.5 μM; RSL3, 1 μM for MDA-MB-453 cells and 5 μM for MCF7 cells; Fer-1, 1 μM. Top panels, cell death staining (scale bar, 100 m). Bottom panels, cell viability. (G) MDA-MB-453 cells were treated as indicated for 24 h. RSL3, 1 μM; CCI-779, 0.5 μM; GDC-0941, 2 μM; MK-2206, 2 μM; Dabrafenib, 2 μM; SCH772984, 2 μM; Fer-1, 1 μM. (H) Western blot was performed to detect RPTOR and RICTOR knockdown efficiency. (I) HT1080 cells and MDA-MB-231 cells (both with wild-type PI3K-AKT-mTOR pathway) were treated as indicated. RSL3, 0.1 μM for HT1080 and 0.25 μM for MDA-MB-231; Torin, 1 μM; CCI-779, 0.5 μM; Fer-1, 1 μM. Cell death was measured. (J) Two lines of PI3K-AKT-mTOR pathway wild-type cells (HT1080 and MDA-MB-231) and two lines of cells harboring activating mutation of the pathway (BT474 and MDA-MB-453) were treated as indicated. RSL3, 0.25 μM; Fer-1, 1 μM. Western blot was performed to detect the level of pT389 S6K.
Cell lysates were resolved on SDS-PAGE gels and transferred to a nitrocellulose membranes. The membranes were incubated in 5% skim milk for 1 hour at room temperature and then incubated with primary antibodies diluted in blocking buffer at 4° C. overnight. […]

[2] = wild-type cells (HT1080 and MDA-MB-231), Fer-1 1 μM

| SMILES | ferroptosis resistance upon treatment of CCI-779 plus RSL3 (fatty acid supplementation) (BT474 cells) | ferroptosis resistance upon treatment of CCI-779 plus RSL3 (fatty acid supplementation) (MDA-MB-453 cells) | sensitivity to ferroptosis induction by RSL3 [1] | ferroptosis induction (cell death) (HT1080 cells) | ferroptosis induction (cell death) (MDA-MB-231 cells) | mTORC1 activity as measured by S6K phosphorylation (mTORC1 activity; cells harboring pathway mutation (BT474 and MDA-MB-453)) | mTORC1 activity as measured by S6K phosphorylation (mTORC1 activity; [2]) |
| --- | --- | --- | --- | --- | --- | --- | --- |
| CCCCCC/C=C\CCCCCCCC(=O)O [palmitoleic acid] | resulted in ferroptosis resistance | resulted in ferroptosis resistance |  |  |  |  |  |
| CCCCCCCC/C=C\CCCCCCCC(=O)O [oleate acid] | resulted in ferroptosis resistance | resulted in ferroptosis resistance |  |  |  |  |  |
| COC(=O)c1ccc([C@@H]2c3[nH]c4ccccc4c3C[C@@H](C(=O)OC)N2C(=O)CCl)cc1 [RSL3] |  |  | more resistant | sufficient to induce ferroptosis | sufficient to induce ferroptosis | retained active mTORC1 | inhibited |
| CCOC(=O)c1ccc(NC2CCCCC2)c(N)c1 [ferrostatin-1] |  |  |  |  |  |  | prevented RSL3-triggered inactivation of mTORC1 activity |
